For orientation: IC50 means the concentration that inhibits the measured activity by half. By AUC(0-t) is commonly meant exposure summed from dosing to a finite time, without extrapolation to infinity. The low end stands for less exposure, the high end for more exposure. Broadly, the AUC is the area under the concentration-time curve, a measure of exposure. In general, half-life refers to the time needed for the level to fall by half in the phase considered. A low value points to rapid decline.

The subject of data set [1] is NCI-H1975 (EGFR-L858R-T790M) cells. Description: Inhibitory activity on proliferation of NCI-H1975 (EGFR-L858R-T790M) cells (CTG, 72 h). In kind it is cell-based. Conditions: Homo sapiens. The procedure, abridged: (§1)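 IC50 values come from S-shaped dose-survival fits of CTG signal expressed as % of vehicle. Compound exposure lasted 72 h at 37 °C with 0.1% DMSO; seeding was 3000 A431 cells/well in DMEM+10% FBS and 1000 NCI-H1975 cells/well in RPMI1640+10% FBS.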

The nature of data set [2]: Pharmacokinetic test in mice. Conditions: male, ICR, mouse, po, administration i.g. (10 mg/kg), plasma. In kind it is in vivo. As to the method:
Test objective: In this experiment, a single dose of test compounds was administered to ICR mice intravenously and intragastrically, the concentrations of the test compounds in plasma of mice were measured, and the pharmacokinetic characteristics and bioavailability of the test compounds in mice were evaluated.
Experimental animals: male ICR mice, 20-25 g, purchased from BEIJING HFK BIOSCIENCE CO., LTD. with the laboratory animal production license number of SCXK (JING) 2019-0008; or purchased from CHENGDU DDOSSY EXPERIMENTAL ANIMALS CO., LTD. (SCXK (CHUAN) 2020-030); or purchased from HUNAN SJA LABORATORY ANIMAL CO., LTD. (SCXK (XIANG) 2019-0004).
Experimental method: on the day of the experiment, ICR mice were randomly grouped according to their body weights. The mice were fasted with water available for 12 to 14 hours one day before the administration, and were fed 4 hours after the administration.
Sampling: before and after the administration, blood was taken from the orbits of the mice under isoflurane anesthesia, and placed in an EDTAK2 centrifuge tube. Centrifugation was carried out at 5000 rpm at 4° C. for 10 min, and the plasma was collected.
Time points for plasma collection in G1&G2 groups: 0, 5 min, 15 min, 30 min, 1h, 2h, 4h, 6h, 8h, and 24 h; • time points for plasma collection in G3 group: 0, 5 min, 15 min, 30 min, 1 h, 2 h, 4 h, 6h, 8h, and 24 h; • before analysis and detection, all samples were stored at −80° C. The samples were analyzed quantitatively by LC-MS/MS.

The test system of the next data set is A431 (EGFR-WT) cells. Description: Inhibitory activity on proliferation of A431 (EGFR-WT) cells (CTG, 72 h). The class given is cell-based. Conditions: Homo sapiens, A-431. In short, it runs like this: as §1
[3] abbreviates: read-out: IC50 (value in brackets).

Where two headings read alike, the source gives them in different places.

Consider `COc1cc(N2CCC(N3CCN(CC4CCN(c5ccc(C(=O)NC6CCC(=O)NC6=O)nc5)CC4)CC3)CC2)c(-c2cnn(C)c2)cc1Nc1ncc(Br)c(Nc2ccc(-c3ccccc3)cc2P(C)(C)=O)n1` (centres unmarked) [Compound 56, 5-(4-((4-(1-(4-((5-bromo-4-((3-(dimethylphosphoryl)-[1,1′-biphenyl]-4-yl)amino)pyrimidin-2-yl)amino)-5-methoxy-2-(1-methyl-1H-pyrazol-4-yl)phenyl)piperidin-4-yl)piperazin-1-yl)methyl)piperidin-1-yl)-N-(2,6-dioxopiperidin-3-yl)picolinamide], for which the IC50 in data set [1] (read-out: IC50 (class symbol)) is under 100 nM; in data set [1] (setting [3]) it was 61 nM. Moreover, in data set [2], the AUC(0-t) is 28600 ng·h/mL.

Take `COc1cc(N2CCC(CN3CCN(c4ccc5c(c4)C(=O)N(C4CCC(=O)NC4=O)C5=O)CC3)CC2)c(-c2cnn(C)c2)cc1Nc1ncc(Cl)c(Nc2ccc(F)cc2P(C)(C)=O)n1` (centres unmarked) [Compound 142, 5-(4-((1-(4-((5-chloro-4-((2-(dimethylphosphoryl)-4-fluorophenyl)amino)pyrimidin-2-yl)amino)-5-methoxy-2-(1-methyl-1H-pyrazol-4-yl)phenyl)piperidin-4-yl)methyl)piperazin-1-yl)-2-(2,6-dioxopiperidin-3-yl)isoindoline-1,3-dione]: the IC50 in data set [1] (read-out: IC50 (class symbol)) is under 100 nM. Further, the IC50 in data set [1] (setting [3]) stood at 33 nM. For the same molecule, in data set [2], the AUC amounted to 104000 ng·h/mL and the half-life was 5.12 h.

As to `COc1cc(N2CCC(CN3CCN(c4ccc5c(c4)C(=O)N(C4CCC(=O)NC4=O)C5=O)CC3)CC2)c(-c2cnn(C)c2)cc1Nc1ncc(Br)c(Nc2ccc(F)cc2P(C)(C)=O)n1` (centres unmarked) [Compound 141, 5-(4-((1-(4-((5-bromo-4-((2-(dimethylphosphoryl)-4-fluorophenyl)amino)pyrimidin-2-yl)amino)-5-methoxy-2-(1-methyl-1H-pyrazol-4-yl)phenyl)piperidin-4-yl)methyl)piperazin-1-yl)-2-(2,6-dioxopiperidin-3-yl)isoindoline-1,3-dione], the IC50 in data set [1] (read-out: IC50 (class symbol)) is under 100 nM; in data set [1] (setting [3]), 27 nM. For the same molecule, in data set [2], the AUC was found to be 86600 ng·h/mL. In addition, the half-life in data set [2] was 5.91 h.

Turning to `COc1cc(N2CCC3(CCN(CC4CCN(c5cc6c(cc5F)C(=O)N(C5CCC(=O)NC5=O)C6=O)CC4)CC3)CC2)c(-c2cnn(C)c2)cc1Nc1ncc(Br)c(Nc2ccc(-c3ccccc3)cc2P(C)(C)=O)n1` (centres unmarked) [Compound 39, 5-(4-((9-(4-((5-bromo-4-((3-(dimethylphosphoryl)-[1,1′-biphenyl]-4-yl)amino)pyrimidin-2-yl)amino)-5-methoxy-2-(1-methyl-1H-pyrazol-4-yl)phenyl)-3,9-diazaspiro[5.5]undecan-3-yl)methyl)piperidin-1-yl)-2-(2,6-dioxopiperidin-3-yl)-6-fluoroisoindoline-1,3-dione], the results for the IC50 in data set [1] (read-out: IC50 (class symbol)) and in data set [1] (setting [3]) were under 100 nM and 51 nM, respectively. In data set [2], the exposure AUC(0-t) was 6000 ng·h/mL.

`COc1cc(N2CCN(C[C@H]3CCN(c4ccc5c(c4)C(=O)N(C4CCC(=O)NC4=O)C5=O)C3)CC2)c(-c2cnn(C)c2)cc1Nc1ncc(Br)c(Nc2ccc(C3CC3)cc2P(C)(C)=O)n1` (stereo partly drawn) [Compound 121, 5-((R)-3-((4-(4-((5-bromo-4-((4-cyclopropyl-2-(dimethylphosphoryl)phenyl)amino)pyrimidin-2-yl)amino)-5-methoxy-2-(1-methyl-1H-pyrazol-4-yl)phenyl)piperazin-1-yl)methyl)pyrrolidin-1-yl)-2-(2,6-dioxopiperidin-3-yl)isoindoline-1,3-dione]: the IC50 in data set [1] (read-out: IC50 (class symbol)) is under 100 nM; in data set [1] (setting [3]), 16 nM; in the data set with A431 (EGFR-WT) cells, at least 10000 nM.

In the case of `COc1cc(N2CCC(CN3CCN(c4ccc5c(c4)CN(C4CCC(=O)NC4=O)C5=O)CC3)CC2)c(-c2cnn(C)c2)cc1Nc1ncc(Cl)c(Nc2ccc(-c3ccccc3)cc2P(C)(C)=O)n1` (centres unmarked) [Compound 105, 3-(5-(4-((1-(4-((5-chloro-4-((3-(dimethylphosphoryl)-[1,1′-biphenyl]-4-yl)amino)pyrimidin-2-yl)amino)-5-methoxy-2-(1-methyl-1H-pyrazol-4-yl)phenyl)piperidin-4-yl)methyl)piperazin-1-yl)-1-oxoisoindolin-2-yl)piperidine-2,6-dione], the IC50 in data set [1] (read-out: IC50 (class symbol)) is under 100 nM; in data set [1] (setting [3]) it was 58 nM; with A431 (EGFR-WT) cells, at least 10000 nM.

Turning to `COc1cc(N2CCC(N3CCN(CC4CCN(c5ccc6c(c5)C(=O)N(C5CCC(=O)NC5=O)C6=O)C4)CC3)CC2)c(C2CC2)cc1Nc1ncc(Br)c(Nc2ccc3nccnc3c2P(C)(C)=O)n1` (centres unmarked) [Compound 35, 5-(3-((4-(1-(4-((5-bromo-4-((5-(dimethylphosphoryl)quinoxalin-6-yl)amino)pyrimidin-2-yl)amino)-2-cyclopropyl-5-methoxyphenyl)piperidin-4-yl)piperazin-1-yl)methyl)pyrrolidin-1-yl)-2-(2,6-dioxopiperidin-3-yl)isoindoline-1,3-dione], the IC50 in data set [1] (read-out: IC50 (class symbol)) is 100 to 500 nM; in data set [1] (setting [3]), 114 nM; in the data set on A431 (EGFR-WT) cells it was at least 10000 nM.

Take `COc1cc(N2CCC(CN3CCN(c4cc5c(cc4F)C(=O)N(C4CCC(=O)NC4=O)C5=O)CC3)CC2)c(-c2cnn(C)c2)cc1Nc1ncc(Cl)c(Nc2ccc(C3CC3)cc2P(C)(C)=O)n1` (centres unmarked) [Compound 160, 5-(4-((1-(4-((5-chloro-4-((4-cyclopropyl-2-(dimethylphosphoryl)phenyl)amino)pyrimidin-2-yl)amino)-5-methoxy-2-(1-methyl-1H-pyrazol-4-yl)phenyl)piperidin-4-yl)methyl)piperazin-1-yl)-2-(2,6-dioxopiperidin-3-yl)-6-fluoroisoindoline-1,3-dione]: the IC50 in data set [1] (read-out: IC50 (class symbol)) was 100 to 500 nM; in data set [1] (setting [3]), 152 nM; in the data set on A431 (EGFR-WT) cells, at least 10000 nM.

`COc1cc(N2CCN(CC3CCN(c4ccc5c(c4)C(=O)N(C4CCC(=O)NC4=O)C5=O)CC3)CC2)c(-c2cnn(C)c2)cc1Nc1ncc(Br)c(Nc2ccc(C3CC3)cc2P(C)(C)=O)n1` (centres unmarked) [Compound 125, 5-(4-((4-(4-((5-bromo-4-((4-cyclopropyl-2-(dimethylphosphoryl)phenyl)amino)pyrimidin-2-yl)amino)-5-methoxy-2-(1-methyl-1H-pyrazol-4-yl)phenyl)piperazin-1-yl)methyl)piperidin-1-yl)-2-(2,6-dioxopiperidin-3-yl)isoindoline-1,3-dione]: the figures for the IC50 (in data set [1] (read-out: IC50 (class symbol)); in data set [1] (setting [3]); in the data set with A431 (EGFR-WT) cells) were under 100 nM, 23 nM and at least 10000 nM, respectively.

For the molecule `COc1cc(N2CCN(C3CCN(CC4CCN(c5ccc6c(c5)C(=O)N(C5CCC(=O)NC5=O)C6=O)CC4)CC3)CC2)c(-c2cnn(C)c2)cc1Nc1ncc(Br)c(Nc2ccc(-c3ccccc3)cc2P(C)(C)=O)n1` (centres unmarked) [Compound 42, 5-(4-((4-(4-(4-((5-bromo-4-((3-(dimethylphosphoryl)-[1,1′-biphenyl]-4-yl)amino)pyrimidin-2-yl)amino)-5-methoxy-2-(1-methyl-1H-pyrazol-4-yl)phenyl)piperazin-1-yl)piperidin-1-yl)methyl)piperidin-1-yl)-2-(2,6-dioxopiperidin-3-yl)isoindoline-1,3-dione], the values for the IC50 (in data set [1] (read-out: IC50 (class symbol)); in data set [1] (setting [3]); in the data set on A431 (EGFR-WT) cells) were under 100 nM, 59 nM and at least 10000 nM, respectively.

As to `COc1cc(N2CCN(C3CCN(CC4CCN(c5ccc6c(c5)C(=O)N(C5CCC(=O)NC5=O)C6=O)CC4)CC3)CC2)c(-c2cnn(C)c2)cc1Nc1ncc(Cl)c(Nc2ccc(-c3ccccc3)cc2P(C)(C)=O)n1` (centres unmarked) [Compound 40, 5-(4-((4-(4-(4-((5-chloro-4-((3-(dimethylphosphoryl)-[1,1′-biphenyl]-4-yl)amino)pyrimidin-2-yl)amino)-5-methoxy-2-(1-methyl-1H-pyrazol-4-yl)phenyl)piperazin-1-yl)piperidin-1-yl)methyl)piperidin-1-yl)-2-(2,6-dioxopiperidin-3-yl)isoindoline-1,3-dione], the IC50 was under 100 nM in data set [1] (read-out: IC50 (class symbol)), 55 nM in data set [1] (setting [3]) and at least 10000 nM with A431 (EGFR-WT) cells.

In the case of `COc1cc(N2CCC(C(=O)N3CCN(c4ccc5c(c4)C(=O)N(C4CCC(=O)NC4=O)C5=O)CC3)CC2)c(-c2cnn(C)c2)cc1Nc1ncc(Br)c(Nc2ccc(C3CC3)cc2P(C)(C)=O)n1` (centres unmarked) [Compound 145, 5-(4-(1-(4-((5-bromo-4-((4-cyclopropyl-2-(dimethylphosphoryl)phenyl)amino)pyrimidin-2-yl)amino)-5-methoxy-2-(1-methyl-1H-pyrazol-4-yl)phenyl)piperidine-4-carbonyl)piperazin-1-yl)-2-(2,6-dioxopiperidin-3-yl)isoindoline-1,3-dione], the IC50 in data set [1] (read-out: IC50 (class symbol)) was under 100 nM; in data set [1] (setting [3]), 69 nM; with A431 (EGFR-WT) cells, at least 10000 nM.

Source of the values: patent US20240269298A1, “PHOSPHONYL DERIVATIVE, AND COMPOSITION AND PHARMACEUTICAL APPLICATION THEREOF” (XIZANG HAISCO PHARMACEUTICAL CO., LTD., priority 2021, published 2024).
